Results as given in patent US8623377B2, “Joint-homing peptides and uses thereof” (University of Maryland, Baltimore, priority 2011, dated 2014).

Legend:
[1] = tested on: adjuvant arthritis in Lewis rats; assay: Antiarthritic activity in the adjuvant arthritis (AA) model, arthritic score; type: in vivo, Lewis rat
Procedure: FIG. 3A: Group of arthritic Lewis rats (n=4 per group) were injected with a peptide (AD, NQR, or RGD) or PBS i.v. on the days indicated by the arrows either at the onset or just after the onset of arthritis. The its were monitored regularly for the disease severity, presented as “arthritic score”. […] The sections were graded for histopathological features associated with arthritis. B, bone; C, cartilage, JS, joint space; SIC, synovium-infiltrating cells.
The synthetic peptide corresponding to the selected phage-encoded peptide was diluted in PBS and injected i.v. into Lewis rats beginning either at the onset or just after the onset of arthritis after Mtb injection. The peptide was injected to rats on alternate days at a dose of 1 or 2 mg/kg body weight. A total of three or four injections were given to each rat. Control animals received an equal volume of PBS. All rats were graded regularly for clinical signs of arthritis (36). The hind paws of these rats were harvested and processed for histopathological examination.
AA was induced in Lewis rats by immunizing them with 1 mg/rat of heat-killed M. tuberculosis H37Ra (Mtb; Difco) in 200 μL of mineral oil (Sigma-Aldrich) via s.c. injection at the base of the tail. Beginning on day 7 after immunization, the rats were observed regularly for signs of arthritis in the paws. The severity of arthritis was evaluated based on erythema and swelling as described previously. The highest score for each paw was 4, and the total maximum score for each rat was 16. The course of AA in the Lewis rat involved the following phases: incubation (days 0-8), onset (days 9-11), peak (days 15-18), and recovery (days 21-27).

HUVECs = assay: Endothelial tube (tubule) formation on Matrigel with VEGF; type: cell-based, human; conditions: VEGF 10 ng/mL, peptide 0-100 μg/mL
Procedure: FIG. 4A: Draining lymph node leukocytes from arthritic rats were dye-tagged with PKH67 and injected i.v. into arthritic rats. One group of rats was left untreated, and the other groups were treated with ADK or NQR peptide. After 24 hours, the synovium-infiltrating cells (SICs) were harvested from the joints, subjected to cytospin, and analyzed by fluorescence microscopy (left). In parallel, another set of synovium-infiltrating cells were stained with PE-labeled anti-CD3 or anti-CD 11b/c+ antibody and analyzed by flow cytometry (right). FIG. 4B: HUVECs were cultured on Matrigel-coated wells for 24 hours in the presence of VEGF (10 ng/mL) and various concentrations (0-100 μg/mL) of NQR (left), ADK (center), and RGD (right) peptides. The branches of vessel-like tubes were counted. A reprensentative set of results is shown. *P<0.05, compared with the VEGF-alone control.
HUVECs (1×10^4) were cultured in 80 μL/well of growth factor-reduced Matrigel (BD Biosciences) in a 96-well plate in 100 μL/well of F-12K medium (with no supplements). These cells were then treated for 20 h with VEGF (R&D Systems) in the presence or absence of different concentrations of peptides (NQR, ADK, or RGD). Tubule formation was observed under a microscope, quantitated, and photographed.

[2] = tested on: HUVECs attachment to vitronectin; assay: Attachment of HUVECs to vitronectin; type: cell-based, human; conditions: peptide 30-800 μg/mL, 1 h on vitronectin-coated wells
Procedure: HUVECs were first suspended in F-12K medium containing the indicated concentrations of NQR, AK or RGD peptide and then incubated for 1 h in microtiter wells coated with vitronectin. The number of cells that attached to vitronectin was quantified. The results of three independent experiments are shown. *P<0.05, compared with the baseline control.
The attachment of HUVECs to vitrnectin was quantified as described (37, 38). Microtiter wells were coated overnight at 4° C. with 2 μg/mL of vitronectin (BD Biosciences). These wells were then blocked for 1 h at 37° C. with 10 mg/mL of BSA (Sigma-Aldrich). In parallel, HUVECs (1.5×10^5 cells/mL) suspended in F-12K medium containing 10% FBS were incubated for 15 min at 37° C. with different concentrations (30-800 μg/mL) of NQR, ADK, or RGD peptide. Thereafter, this cell suspension 100 μL/well) was added to the vitronectin-coated wells, followed by incubation at 37° C. for 1 h. After washing, the number of attached cells was determined using crystal violet (Fisher Scientific).

ERK1/2 = assay: VEGF-induced signaling in HUVECs, Western blot p-ERK1/2; type: cell-based, human; conditions: peptide 10, 50, 100 μg/mL 1 h, then VEGF 10 ng/mL 20 min
Excerpt: (§1) FIG. 6A: HUVECs were stimulated with VEGF and treated with the indicated concentrations of peptides. Phosphorylated ERK1/2 and Akt, as well as total ERK1/2 and Akt, were detected by Western blot analysis. FIG. 6B: Thereafter, p-ERK1/2 and p-Akt were quantified by densitometry, normalized to total ERK1/2 (left) and Akt (right), respectively, and compared with cells in serum-free medium. The results of a representative experiment from a set of three independent experiments are shown. *P<0.05, compared with the positive control.
(§2) HUVECs were grown in F-12K medium in the presence of endothelial cell growth supplement (ECGS) (BD Biosciences) and 15% FBS. Confluent cells were starved in basal medium (without ECGS and FBS) for 6 h. Then the cells were pretreated for 1 h with different concentrations (10, 50, and 100 μg/mL) of a peptide (NQR, ADK, or RGD) in fresh basal medium, followed by treatment with VEGF (10 ng/mL) for another 20 min. The conditional medium was discarded, and the cells were lysed using a lysis buffer containing protease inhibitors and phosphatase inhibitors. The cell lysate was then centrifuged, and the resulting supernatant was used for analysis of signaling molecules using specific antibodies to human pERK1/2, ERK1/2, pAkt, Akt, and GAPDH (Cell Signaling Technology) by Western blot analysis. The intensity of the bands in the gel was quantified by densitometry. The levels of p-ERK1/2 and p-Akt were normalized to total ERK1/2 and Akt, respectively, and compared with cells in serum-free medium.

Akt = assay: VEGF-induced signaling in HUVECs, Western blot p-Akt; type: cell-based, human; conditions: peptide 10, 50, 100 μg/mL 1 h, then VEGF 10 ng/mL 20 min
Excerpt: as §1, §2

αvβ3 = target: T1, αvβ3 (Oryctolagus cuniculus, UniProt A0A5F9CTL5+A0A5F9D0E2); conditions: intra-articular injection, rabbits with antigen-induced arthritis; cited from earlier work
T1 construct: host or cells: rabbit joints in vivo (intra-articular injection)
T1 sequence (A0A5F9D0E2 30-1047): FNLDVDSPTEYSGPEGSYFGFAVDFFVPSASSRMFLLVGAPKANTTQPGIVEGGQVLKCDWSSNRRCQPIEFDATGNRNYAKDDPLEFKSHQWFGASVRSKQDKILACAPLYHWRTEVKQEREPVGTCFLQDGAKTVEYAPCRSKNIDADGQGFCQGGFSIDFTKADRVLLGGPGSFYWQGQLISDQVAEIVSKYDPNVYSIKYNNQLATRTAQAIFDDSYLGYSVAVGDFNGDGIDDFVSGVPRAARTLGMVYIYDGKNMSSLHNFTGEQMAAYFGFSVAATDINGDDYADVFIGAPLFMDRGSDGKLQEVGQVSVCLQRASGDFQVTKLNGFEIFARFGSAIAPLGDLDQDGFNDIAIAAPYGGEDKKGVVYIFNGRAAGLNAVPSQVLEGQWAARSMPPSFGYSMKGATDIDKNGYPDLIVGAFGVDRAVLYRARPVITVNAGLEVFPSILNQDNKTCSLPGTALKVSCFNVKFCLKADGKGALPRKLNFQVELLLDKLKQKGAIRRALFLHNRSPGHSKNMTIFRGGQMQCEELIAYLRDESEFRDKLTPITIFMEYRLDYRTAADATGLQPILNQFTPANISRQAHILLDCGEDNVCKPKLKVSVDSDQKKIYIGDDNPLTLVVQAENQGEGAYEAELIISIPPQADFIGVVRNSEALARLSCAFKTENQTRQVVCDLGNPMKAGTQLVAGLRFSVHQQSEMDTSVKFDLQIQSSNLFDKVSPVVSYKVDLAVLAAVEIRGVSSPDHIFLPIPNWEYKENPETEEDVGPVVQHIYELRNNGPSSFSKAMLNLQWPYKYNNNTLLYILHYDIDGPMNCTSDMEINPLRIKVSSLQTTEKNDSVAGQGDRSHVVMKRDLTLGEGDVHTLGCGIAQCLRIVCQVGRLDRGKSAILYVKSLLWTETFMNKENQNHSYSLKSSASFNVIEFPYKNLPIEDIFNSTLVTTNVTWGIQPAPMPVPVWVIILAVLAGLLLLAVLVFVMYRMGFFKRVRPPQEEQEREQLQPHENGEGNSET
T1 sequence (A0A5F9CTL5 1-785): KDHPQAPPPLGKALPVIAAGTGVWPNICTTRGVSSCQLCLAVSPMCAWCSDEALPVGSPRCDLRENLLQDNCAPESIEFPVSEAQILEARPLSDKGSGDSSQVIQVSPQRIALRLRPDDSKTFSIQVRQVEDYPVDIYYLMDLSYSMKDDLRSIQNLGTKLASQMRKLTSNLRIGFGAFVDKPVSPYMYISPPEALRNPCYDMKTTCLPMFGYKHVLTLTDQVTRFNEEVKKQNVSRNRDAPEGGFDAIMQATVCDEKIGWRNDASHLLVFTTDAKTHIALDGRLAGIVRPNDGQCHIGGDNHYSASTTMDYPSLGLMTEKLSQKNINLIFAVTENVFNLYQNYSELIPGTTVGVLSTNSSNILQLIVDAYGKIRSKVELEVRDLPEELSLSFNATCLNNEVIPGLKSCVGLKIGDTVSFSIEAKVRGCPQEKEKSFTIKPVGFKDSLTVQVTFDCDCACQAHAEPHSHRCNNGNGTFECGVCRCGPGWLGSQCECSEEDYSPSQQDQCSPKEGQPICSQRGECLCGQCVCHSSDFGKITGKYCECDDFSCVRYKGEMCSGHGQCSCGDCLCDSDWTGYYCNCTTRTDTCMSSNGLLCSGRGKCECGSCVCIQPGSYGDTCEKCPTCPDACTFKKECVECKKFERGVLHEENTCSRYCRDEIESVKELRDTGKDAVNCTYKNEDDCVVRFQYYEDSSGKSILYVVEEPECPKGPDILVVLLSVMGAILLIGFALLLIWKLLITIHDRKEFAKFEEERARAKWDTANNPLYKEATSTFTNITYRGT

[3] = tested on: human synovial tissue engrafted s.c.; conditions: human synovial tissue engrafted s.c. in SCID mice; cited from earlier work

In the case of RGDfK [RGD peptide, reference compound], the “difference in arthritic score versus PBS/ADK” value ([1]; from day 15 to day 27 (FIG. 3A center)) is reported as “significant”, the “suppression of the arthritic process” value ([1]; i.v. injection around the time of onset of arthritis, 1 or 2 mg/kg on alternate days) is reported as “also suppressed arthritis” and the down-modulation of arthritis ([1]; injected just after the onset of AA) is reported as “effective in down-modulating arthritis”. For the same substance, the “effect on endothelial cell tube formation” value (HUVECs) was “inhibited tube formation”, the “effect on attachment of HUVECs to vitronectin” value [2] was “significantly inhibited cell attachment” and the “effect on VEGF-induced pERK” value (ERK1/2) was “the opposite was observed”. For the same substance, the “effect on VEGF-induced pAkt” value (Akt) was “the opposite was observed”.
In the case of RGDfV, the effect on arthritis (αvβ3) is listed as “reduce clinical arthritis, synovial angiogenesis, and joint damage”.
For “CKSTHDRLC [literature peptide homing to human synovial tissue engrafted in SCID mice]”, the homing of peptide [3] is given as “homing to the human synovial tissue”.
In the case of “CRNADKFPC (Synthetic peptide homing to joint in an animal) [ADK peptide, joint-homing phage-derived synthetic peptide]”, the “effect on endothelial cell tube formation” value (HUVECs) is reported as “had no effect”, the “effect on attachment of HUVECs to vitronectin” value [2] is reported as “Neither peptide had any effect” and the “effect on VEGF-induced pERK” value (ERK1/2) is reported as “had no effect”. For the same substance, the “effect on VEGF-induced pAkt” value (Akt) was “had no effect”.
